Common to all, as to assay type: in vivo
In one assay the test system is Phalaris canariensis. Nature of the assay: Post emergence treatment, herbicidal activity against PHACA. Details: scale not given here. As to the method:
(§1) Synergism can be described as an interaction where the combined effect of two or more compounds is greater than the sum of the individual effects of each of the compounds. […] However, the weed control afforded by the compounds, mixtures or compositions is not limited to these species.The analysis of synergism or antagonism between the mixtures or compositions was determined using Colby's equation. Analogously, the Colby's equation can be used to determine synergism of 3-way and higher mixtures: [table] Post Emergence Treatment by the Mixture of (Imazamox+Imazethapyr)+Bentazon Post Emergence Treatment by the Mixture of (Imazamox+Imazethapyr)+Fomesafen Post Emergence Treatment by the Mixture of (Imazamox+Imazethapyr)+Sulfentrazone

The next assay concerns Leptochloa fusca. Nature of the assay: Post emergence treatment, herbicidal activity against LEFFA. As to the method: as §1
The subject of a further assay is Geranium dissectum. Description: Post emergence treatment, herbicidal activity against GERDI. More on the design: scale not given here. The procedure:
as §1

The next assay deals with Setaria faberi. Nature of the assay: Post emergence treatment, herbicidal activity against SETFA. As to the method:
as §1, with “of” for “of (Imazamox+Imazethapyr)+Fomesafen Post Emergence Treatment by the Mixture of”

In the next assay the test system is Sesbania exaltata. Nature of the assay: Post emergence treatment, herbicidal activity against SEBEX. Details: scale not given here. The procedure:
as §1

Another assay deals with Polygonum persicaria. Description: Post emergence treatment, herbicidal activity against POLPE. The procedure: as §1, with “of” for “of (Imazamox+Imazethapyr)+Bentazon Post Emergence Treatment by the Mixture of”
The subject of another assay is Panicum miliaceum. Description: Post emergence treatment, herbicidal activity against PANMI. The following applies: Example 3, post emergence; g ai/ha: imazethapyr 15, imazamox 15, sulfentrazone 6, mixture (15 + 15) + 6. The procedure: (§2) Synergism can be described as an interaction where the combined effect of two or more compounds is greater than the sum of the individual effects of each of the compounds. […] However, the weed control afforded by the compounds, mixtures or compositions is not limited to these species.The analysis of synergism or antagonism between the mixtures or compositions was determined using Colby's equation. Analogously, the Colby's equation can be used to determine synergism of 3-way and higher mixtures: [table] Post Emergence Treatment by the Mixture of (Imazamox+Imazethapyr)+Sulfentrazone

Another assay concerns Brachiaria decumbens. Description: Post emergence treatment, herbicidal activity against BRADC. The following applies: Example 3, post emergence; g ai/ha: imazethapyr 15, imazamox 15, sulfentrazone 10, mixture (15 + 15) + 10. The procedure: as §2
Another assay concerns Ambrosia artemisiifolia. Description: Post emergence treatment, herbicidal activity against AMBEL. The procedure: as §1, with “(Imazamox+Imazethapyr)+Fomesafen” for “(Imazamox+Imazethapyr)+Fomesafen Post Emergence Treatment by the Mixture of (Imazamox+Imazethapyr)+Sulfentrazone”
For another assay, the system named is Abutilon theophrasti. Nature of the assay: Post emergence treatment, herbicidal activity against ABUTH. The following applies: Example 1, post emergence; g ai/ha: imazethapyr 15, imazamox 15, bentazon 25, mixture (15 + 15) + 25. As to the method: (§3) Synergism can be described as an interaction where the combined effect of two or more compounds is greater than the sum of the individual effects of each of the compounds. […] However, the weed control afforded by the compounds, mixtures or compositions is not limited to these species.The analysis of synergism or antagonism between the mixtures or compositions was determined using Colby's equation. Analogously, the Colby's equation can be used to determine synergism of 3-way and higher mixtures: [table] Post Emergence Treatment by the Mixture of (Imazamox+Imazethapyr)+Bentazon

For the next assay, the system named is Echinochloa crus-galli. Description: Post emergence treatment, herbicidal activity against ECHCG. The following applies: Example 1, post emergence; g ai/ha: imazethapyr 15, imazamox 15, bentazon 50, mixture (15 + 15) + 50. As to the method:
as §3

The subject of another assay is Digitaria sanguinalis. Nature of the assay: Post emergence treatment, herbicidal activity against DIGSA. The conditions noted are these: Example 1, post emergence; g ai/ha: imazethapyr 15, imazamox 15, bentazon 50, mixture (15 + 15) + 50. The procedure: as §3
The next assay concerns Conyza canadensis. Description: Post emergence treatment, herbicidal activity against ERICA. As to the method: as §1, with “(Imazamox+Imazethapyr)+Fomesafen” for “(Imazamox+Imazethapyr)+Fomesafen Post Emergence Treatment by the Mixture of (Imazamox+Imazethapyr)+Sulfentrazone”
Another assay relates to Convolvulus arvensis. Description: Post emergence treatment, herbicidal activity against CONAR. The conditions noted are these: Example 2, post emergence; g ai/ha: imazethapyr 15, imazamox 15, fomesafen 6, mixture (15 + 15) + 6. As to the method: Synergism can be described as an interaction where the combined effect of two or more compounds is greater than the sum of the individual effects of each of the compounds. […] However, the weed control afforded by the compounds, mixtures or compositions is not limited to these species.The analysis of synergism or antagonism between the mixtures or compositions was determined using Colby's equation. Analogously, the Colby's equation can be used to determine synergism of 3-way and higher mixtures: [table] Post Emergence Treatment by the Mixture of (Imazamox+Imazethapyr)+Fomesafen

The mark [1] stands for this setting: Example 3, post emergence, g ai/ha: imazethapyr 15, imazamox 15, sulfentrazone 6, mixture (15 + 15) + 6.
The mark [2] stands for this setting: Example 3, post emergence, g ai/ha: imazethapyr 15, imazamox 15, sulfentrazone 10, mixture (15 + 15) + 10.
[3] abbreviates: Example 1, post emergence, g ai/ha: imazethapyr 15, imazamox 15, bentazon 25, mixture (15 + 15) + 25.
Setting [4] is: Example 2, post emergence, g ai/ha: imazethapyr 15, imazamox 15, fomesafen 6, mixture (15 + 15) + 6.
The mark [5] stands for this setting: Example 2, post emergence, g ai/ha: imazethapyr 15, imazamox 15, fomesafen 10, mixture (15 + 15) + 10.
The mark [6] stands for this setting: Example 1, post emergence, g ai/ha: imazethapyr 15, imazamox 15, bentazon 50, mixture (15 + 15) + 50.

Consider `Cc1nn(-c2cc(NS(C)(=O)=O)c(Cl)cc2Cl)c(=O)n1C(F)F` [Sulfentrazone, 2′,4′-dichloro-5′-(4-difluoromethyl-4,5-dihydro-3-methyl-5-oxo-1H-1,2,4-triazol-1-yl)methanesulfonanilide], for which the “Herbicidal activity against PHACA Found” value in the assay on Phalaris canariensis (setting [1]) is 0. In addition, the “Herbicidal activity against LEFFA Found” value in the assay on Leptochloa fusca (setting [1]) was 0. In addition, the “Herbicidal activity against GERDI Found” value in the assay with Geranium dissectum (setting [1]) came to 0. The “Herbicidal activity against SETFA Found” value with Setaria faberi (setting [1]) was 0. In the assay on Sesbania exaltata (setting [2]), the “Herbicidal activity against SEBEX Found” value is recorded as 80. Moreover, in the assay on Polygonum persicaria (setting [2]), the “Herbicidal activity against POLPE Found” value is 80. The “Herbicidal activity against PANMI Found” value in the assay on Panicum miliaceum was 0. Besides, in the assay with Brachiaria decumbens, the “Herbicidal activity against BRADC Found” value is recorded as 30.

For the compound `COCc1cnc(C2=NC(C)(C(C)C)C(=O)N2)c(C(=O)O)c1` (racemic) [Imazamox, 2-[(RS)-4-isopropyl-4-methyl-5-oxo-2-imidazolin-2-yl]-5-methoxymethylnicotinic acid], the “Herbicidal activity against PHACA Found” value with Phalaris canariensis (setting [3]), in the assay on Phalaris canariensis (setting [4]) and in the assay on Phalaris canariensis (setting [1]) was 65 throughout. Besides, the “Herbicidal activity against LEFFA Found” value in the assay on Leptochloa fusca (setting [3]), in the assay with Leptochloa fusca (setting [4]) and in the assay with Leptochloa fusca (setting [1]) was 85 each time. The “Herbicidal activity against AMBEL Found” value is recorded as 98 in the assay with Ambrosia artemisiifolia (setting [3]) and 70 in the assay on Ambrosia artemisiifolia (setting [5]). The “Herbicidal activity against GERDI Found” value is listed as 80 in the assay on Geranium dissectum (setting [3]), 80 in the assay on Geranium dissectum (setting [4]), 95 in the assay with Geranium dissectum (setting [5]) and 80 in the assay on Geranium dissectum (setting [1]). Further, in the assay with Abutilon theophrasti, the “Herbicidal activity against ABUTH Found” value was found to be 95. In addition, in the assay with Echinochloa crus-galli, the “Herbicidal activity against ECHCG Found” value worked out at 98. The “Herbicidal activity against SETFA Found” value with Setaria faberi (setting [6]) and with Setaria faberi (setting [1]) was 98 in each case. Also, the “Herbicidal activity against DIGSA Found” value in the assay with Digitaria sanguinalis amounted to 98. In addition, the “Herbicidal activity against SEBEX Found” value with Sesbania exaltata (setting [6]), with Sesbania exaltata (setting [5]) and in the assay on Sesbania exaltata (setting [2]) was 45 each time. In addition, the “Herbicidal activity against ERICA Found” value in the assay on Conyza canadensis (setting [6]) and in the assay with Conyza canadensis (setting [5]) was 60 each time. Moreover, in the assay on Convolvulus arvensis, the “Herbicidal activity against CONAR Found” value came out at 75. Further, the “Herbicidal activity against POLPE Found” value with Polygonum persicaria (setting [4]) and with Polygonum persicaria (setting [2]) was 95 each time. The “Herbicidal activity against PANMI Found” value in the assay with Panicum miliaceum came to 98. The “Herbicidal activity against BRADC Found” value in the assay on Brachiaria decumbens worked out at 35.

On to `CC(C)N1C(=O)c2ccccc2NS1(=O)=O` [Bentazon, 3-isopropyl-1H-2,1,3-benzothiadiazin-4(3H)-one 2,2-dioxide], for which, in the assay on Phalaris canariensis (setting [3]), the “Herbicidal activity against PHACA Found” value is 0. For the same compound, in the assay with Leptochloa fusca (setting [3]), the “Herbicidal activity against LEFFA Found” value stood at 0. Besides, in the assay on Ambrosia artemisiifolia (setting [3]), the “Herbicidal activity against AMBEL Found” value is recorded as 0. The “Herbicidal activity against GERDI Found” value with Geranium dissectum (setting [3]) amounted to 0. The “Herbicidal activity against ABUTH Found” value with Abutilon theophrasti is 0. For the same compound, in the assay with Echinochloa crus-galli, the “Herbicidal activity against ECHCG Found” value is listed as 35. In addition, in the assay on Setaria faberi (setting [6]), the “Herbicidal activity against SETFA Found” value is listed as 10. Moreover, the “Herbicidal activity against DIGSA Found” value with Digitaria sanguinalis worked out at 40. In addition, the “Herbicidal activity against SEBEX Found” value in the assay on Sesbania exaltata (setting [6]) amounted to 40. Further, in the assay on Conyza canadensis (setting [6]), the “Herbicidal activity against ERICA Found” value was found to be 40.

With `CS(=O)(=O)NC(=O)c1cc(Oc2ccc(C(F)(F)F)cc2Cl)ccc1[N+](=O)[O-]` [Fomesafen, 5-(2-chloro-α,α,α-trifluoro-p-tolyloxy)-N-mesyl-2-nitrobenzamide], the “Herbicidal activity against PHACA Found” value in the assay on Phalaris canariensis (setting [4]) worked out at 0. The “Herbicidal activity against LEFFA Found” value with Leptochloa fusca (setting [4]) was found to be 0. The “Herbicidal activity against AMBEL Found” value in the assay on Ambrosia artemisiifolia (setting [5]) was determined as 65. Besides, the “Herbicidal activity against GERDI Found” value with Geranium dissectum (setting [4]) came to 0; in the assay on Geranium dissectum (setting [5]), 70. Also, the “Herbicidal activity against SEBEX Found” value in the assay on Sesbania exaltata (setting [5]) was 80. The “Herbicidal activity against ERICA Found” value in the assay on Conyza canadensis (setting [5]) was found to be 30. Further, the “Herbicidal activity against CONAR Found” value with Convolvulus arvensis came out at 0. The “Herbicidal activity against POLPE Found” value in the assay on Polygonum persicaria (setting [4]) is on record as 20.

Take `CCc1cnc(C2=NC(C)(C(C)C)C(=O)N2)c(C(=O)O)c1` (racemic) [Imazethapyr, 5-ethyl-2-[(RS)-4-isopropyl-4-methyl-5-oxo-2-imidazolin-2-yl]nicotinic acid]: the “Herbicidal activity against PHACA Found” value with Phalaris canariensis (setting [3]), in the assay with Phalaris canariensis (setting [4]) and with Phalaris canariensis (setting [1]) was 30 in each case. Moreover, the “Herbicidal activity against LEFFA Found” value in the assay with Leptochloa fusca (setting [3]), with Leptochloa fusca (setting [4]) and in the assay with Leptochloa fusca (setting [1]) was 45 throughout. For the same compound, the figures for the “Herbicidal activity against AMBEL Found” value in the assay with Ambrosia artemisiifolia (setting [3]) and in the assay on Ambrosia artemisiifolia (setting [5]) were 98 and 65, respectively. For the same compound, the “Herbicidal activity against GERDI Found” value in the assay on Geranium dissectum (setting [3]), with Geranium dissectum (setting [4]), in the assay on Geranium dissectum (setting [5]) and in the assay on Geranium dissectum (setting [1]) was 65 each time. Further, the “Herbicidal activity against ABUTH Found” value with Abutilon theophrasti turned out to be 50. The “Herbicidal activity against ECHCG Found” value in the assay with Echinochloa crus-galli came to 80. Moreover, the figures for the “Herbicidal activity against SETFA Found” value in the assay with Setaria faberi (setting [6]) and in the assay on Setaria faberi (setting [1]) were 90 and 95, respectively. The “Herbicidal activity against DIGSA Found” value in the assay with Digitaria sanguinalis is listed as 80. Further, the “Herbicidal activity against SEBEX Found” value in the assay with Sesbania exaltata (setting [6]), with Sesbania exaltata (setting [5]) and in the assay on Sesbania exaltata (setting [2]) was 0 throughout. Further, the “Herbicidal activity against ERICA Found” value in the assay on Conyza canadensis (setting [6]) and with Conyza canadensis (setting [5]) was 55 throughout. Further, the “Herbicidal activity against CONAR Found” value in the assay with Convolvulus arvensis was determined as 65. Further, the “Herbicidal activity against POLPE Found” value is 0 with Polygonum persicaria (setting [4]) and 75 in the assay with Polygonum persicaria (setting [2]). In the assay on Panicum miliaceum, the “Herbicidal activity against PANMI Found” value is 70. Besides, the “Herbicidal activity against BRADC Found” value in the assay on Brachiaria decumbens is given as 10.

The values are drawn from patent publication US20160324154A1, “Herbicidal mixtures comprising imazethapyr, imazamox and fomesafen, sulfentrazone or bentazone” (BASF AGROCHEMICAL PRODUCTS B.V., priority 2014, published 2016).
